Measured values from US20250154288A1, “CYTOTOXICITY TARGETING CHIMERAS FOR C-C CHEMOKINE RECEPTOR 2-EXPRESSING CELLS” (GLAXOSMITHKLINE INTELLECTUAL PROPERTY DEVELOPMENT LIMITED, priority 2022, published 2025).

What was measured:
[1] = tested on: CCR2 expressing cells (CD11b+Ly6c+ Hi) in peripheral blood; experiment: In Vivo Depletion Assay (flow cytometry of peripheral blood); design: species or system Human CCR2 (hCCR2) knock-in mice; settings: hCCR2 knock-in mice; IV 0.1 mpk compound + 10 mpk anti-cotinine antibody (mouse IgG2a Fc); peripheral blood at 48 hr
Procedure: (§1) Human CCR2 (hCCR2) knock-in mice (057 background) were dosed intravenously with a PBS solution containing a compound of Formula (I) to measure depletion of CCR2 expressing cells in peripheral blood. Peripheral blood from IV dosed mice was also analyzed to determine PK properties of the ARM compounds of Formula (I).
Stock solution preparation: Stock solutions of compounds of Formula (I) were prepared at 20 mg/mL and 100 mg/mL in DMSO for PK/PD and dose tolerability studies respectively. Stock solutions were stored at −20° C. until further usage.
Formulations preparation: On the day of experiment, the stock solution of the compound of Formula (I) was removed from storage at −20° C. and thawed at room temperature. Anti-cotinine antibody having a heavy chain sequence of SEQ ID NO: 13 and a light chain sequence of SEQ ID NO: 14 (rabbit variable region sequence with mouse IgG2a Fc domain), if required was removed from storage at −80° C. and thawed at room temperature. Antibody vials were immediately transferred into wet ice after thawing. Compounds of Formula (I) were further diluted in DMSO as per experimental requirements.
Formulation composition: The formulation composition was Saline: DMSO: PBS. Saline was added based on the quantity required and then stock solution of the compound of Formula (I) prepared in DMSO, followed by addition of antibody in PBS. Formulations were incubated at room temperature for 30 minutes before administration to the mouse. DMSO was used at 1 to 2% (v/v) in the final formulation.
(§2) Administration to Animal: Solution formulation of antibody and compound of Formula (I) was injected (bolus injection) to the restrained mouse in the right/left lateral tail vein. Animals were dosed with 0.1 milligram per kilogram (mpk) of the compound of Formula (I) and 10 mpk of the anti-cotinine antibody.
(§3) Terminal bleeding at end of experiment (48 hr): Approximately 250 μL of blood in K2EDTA tube and approximately 250 μL of blood in SST (serum separation tube) was collected from each mouse through retro-orbital bleeding under deep isoflurane anesthesia. After bleeding, each mouse was sacrificed by cervical dislocation. The blood distribution at termination was determined as follows: • For PK: 50 μL of K2EDTA blood was transferred to another tube for PK • Flow cytometry: Remaining blood (˜200 μL) was used for flow cytometry analysis. • For serum collection: serum separator tubes (BD) were centrifuged at 4° C., 5000 rpm for 15 minutes. Approximately 100 μL serum was separated and stored at −80° C. for further usage. • Blood drug concentration: Samples collected at the various timepoints (0.25 hr, 2 hr, 24 and 48 hr) were analyzed to determine blood drug concentration.
CCR2 depletion in peripheral blood was determined by flow cytometry. Briefly, peripheral blood was collected from all animals at the end of study termination and processed. Blood samples were lysed using 1×RBC Lysis buffer and the resulting cell pellet was washed twice in FACS buffer (HBSS containing 5% FBS). Cells were subjected to Fc blocking using mouse Fc block from Biolegend (Trustain, anti-mouse CD16/32, Cat: 101319) to block non-specific binding followed by surface staining for immune markers (CD45, CD3, CD11b, Ly6C, human CCR2). Surface staining was done for 30 minutes in ice and cells were washed twice to remove unbound antibodies. Cells were stained with 7AAD to determine viability and acquired on BD FACSVerse flow cytometer. Appropriate FMO controls and single-color controls were included in the experiment for gating and compensation respectively.
Percent depletion of CD11b+Ly6c+ Hi cells and CCR2 expression for the different treatment groups was determined. The results are shown below in Table 4 and are reported as percent (%) depletion of CCR2 expressing cells.

[2] = Blood drug concentration analysis (LC-MS/MS) in In Vivo Depletion Assay; settings: human CCR2 (hCCR2) knock-in, 057 background, mouse, whole blood, hCCR2 knock-in mice, IV 0.1 mpk compound + 10 mpk anti-cotinine antibody, 48 hours post-dose, read-out: Exposure of Compound of Formula (I) 48 hours post-dose
Procedure: as §1, §2
Collection of Blood for PK: Blood was collected at time points 0.25 hour, 2 hours, and […] following administration (50 μL/time point) through retro-orbital bleeding under mild isoflurane anesthesia.
as §3
Drug concentration in blood samples was determined by an LC-MS/MS-based bioanalytical method developed at Syngene. Samples were analyzed on Q-Trap, API-5500 LC-MS/MS system coupled with Exion UHPLC system from SCIEX, USA operated in multiple reaction monitoring mode employing electrospray ionization technique in positive polarity. Analyte and internal standard peaks were resolved on Synergi Polar, 75×2.0 mm, 4μ column using mobile phase 10 mM Ammonium acetate in Milli-Q water as phase A and 0.1% Formic acid in acetonitrile as Phase B. Gradient elution was performed with initial composition 95% Phase A at 0.0 min, holding it for 0.2 minutes, ramping to 5% by 1.0 minute, keeping the same for next 0.5 minutes and coming back to 95% by 1.6 minutes. The total run time was 2 minutes.
Working dilutions for calibration curve and quality control standards were prepared by serially diluting 20 mg/mL stock solution with DMSO. Spiked concentrations for calibration curve in the whole blood ranged from 1 ng/mL to 1000 ng/mL. The working solution of internal standard (Verapamil, 25 ng/mL) was prepared in acetonitrile. 10 μL of the study sample and calibration curve, quality control, and blank whole blood samples were aliquoted in 96 deep well plates for processing. 10 μL of Milli-Q water was added to all the samples and briefly vortexed to initiate complete hemolysis. 10 μL of 20 mM dithiothreitol (OTT) was added to all the samples and incubated for 30 minutes at 37° C. The addition of DTT enhanced the recovery of ARM compounds of Formula (I) from the biological matrix. 300 μL of working internal standard solution was added to all samples except total blank and wash samples, where 300 μL of acetonitrile was added. All the samples were vortex mixed for 5 minutes, followed by centrifugation at 4000 rpm for 10 minutes at 4° C. Supernatants were transferred to the loading plate and injected 3 μL to LC-MS/MS system for analysis. The results are shown below in Table 4 and are reported as compound exposure 48 hours post-dose

[3] = molecular target: T1, CHOK1 cells engineered to overexpress human CCR2 (Homo sapiens, UniProt P41597); experiment: Antibody Dependent Cellular Cytotoxicity (ADCC) Reporter Assay; format: cell-based; settings: with anti-cotinine antibody (human IgG1 Fc, S239D/I332E); Jurkat FcγRIIIa NFAT-luciferase reporter cells; average if several runs; read-out: ADCC Reporter Assay pEC50 (converted)
T1 construct: expressed in transfected cells; host or cells: CHOK1
Procedure: An antibody dependent cellular cytoxocity reporter assay was conducted using the following four assay components: (i) ARM compound of Formula (I) targeting CCR2 (concentrations ranging from 1 pM to 10 μM) (ii) anti-cotinine antibody having a heavy chain sequence of SEQ ID NO: 11 and a light chain sequence of SEQ ID NO: 12 (rabbit variable region with human IgG1 Fc domain containing a DE mutation (S239D/I332E)) (concentrations ranging from 0.01 μg/mL to 200 μg/mL); (iii) target cells: CHOK1 cells engineered to overexpress either human CCR2 (typically 1000-20,000 cells per well) and (iv) reporter cells: Jurkat cells engineered to express FcγRIIIa with the reporter gene luciferase under the control of the NFAT promoter (typically 3000-75,000 cells per well). Reagents were combined in a final volume of 20 μL in a 384-well tissue culture treated plate. All four assay components were incubated together for about 12-18 hours. Thereafter, BioGlo Detection reagent (Promega) was added to the wells to lyse the cells and provide a substrate for the luciferase reporter protein. Luminescence signal was measured on a microplate reader and signal:background was calculated by dividing the signal of a test well by the signal obtained when no heterobivalent compound of Formula (I) was added. EC50 calculations were done using Graphpad Prism Software, specifically a nonlinear regression curve fit (Y=Bottom+(Top−Bottom)/(1+10 ^((Log EC50−X)*HillSlope))).
ARMs compounds of Formula (I) of the invention were tested for ADCC activity in the above assay in or more experimental runs and the results are shown in Table 3 below. Potency of the compounds of Formula (I) of the invention is reported as a pEC50 value. The pEC50 value is the negative log of the EC50 value, wherein the EC50 value is the half maximal effective concentration measured in molar (M). For compounds tested in more than one experimental run, the pEC50 value is reported as an average.

Row | Structure (SMILES) | % Depletion of CCR2 expressing cells [1] [%] | concentration at 48 h [2] [ng/mL] | EC50 [3] [nM]
1 | CO[C@@H]1COCC[C@@H]1N[C@@H]1CC[C@@](C(=O)N2CCc3nc(CCCCNC(=O)[C@H]4CC[C@H](NC(=O)CCCO[C@H]5CC[C@H](OCCNC(=O)[C@H]6CC(=O)N(C)[C@@H]6c6cccnc6)CC5)CC4)c(C(F)(F)F)cc3C2)(C(C)C)C1 [Example 12, (2S,3S)-N-(2-(((1R,4S)-4-(4-(((1r,4R)-4-((4-(6-((1S,3R)-1-Isopropyl-3-(((3S,4S)-3-methoxytetrahydro-2H-pyran-4-yl)amino)cyclopentane-1-carbonyl)-3(trifluoromethyl)-5,6,7,8-tetrahydro-1,6-naphthyridin-2-yl)butyl)carbamoyl)cyclohexyl)amino)-4oxobutoxy)cyclohexyl)oxy)ethyl)-1-methyl-5-oxo-2-(pyridin-3-yl)pyrrolidine-3 carboxamide] | 95.4 | 33.3 | 0.631
2 | CO[C@@H]1COCC[C@@H]1N[C@@H]1CC[C@](CCCNC(=O)[C@H]2CC[C@H](NC(=O)CCCO[C@H]3CC[C@@H](OCCNC(=O)[C@H]4CC(=O)N(C)[C@@H]4c4cccnc4)CC3)CC2)(C(=O)N2CCc3ncc(C(F)(F)F)cc3C2)C1 [Example 5, (2S,3S)-N-(2-(((1S,4R)-4-(4-(((1S,4R)-4-((3-((1S,3R)-3-(((3S,4S)-3-Methoxytetrahydro-2H-pyran-4-yl)amino)-1-(3-(trifluoromethyl)-5,6,7,8-tetrahydro-1,6-naphthyridine-6-carbonyl)cyclopentyl)propyl)carbamoyl)cyclohexyl)amino)-4-oxobutoxy)cyclohexyl)oxy)ethyl)-1-methyl-5-oxo-2-(pyridin-3-yl)pyrrolidine-3-carboxamide] | 98.41 | 95.4 | 0.158
